The results in this text go back to US20220218679A1, “NOVEL COMPOUNDS AND PHARMACEUTICAL COMPOSITIONS THEREOF FOR THE TREATMENT OF INFLAMMATORY DISORDERS” (Galapagos NV, priority 2019, published 2022).

One data set addresses T1, human IRAK-4 (Homo sapiens, UniProt Q9NWZ3).
T1 construct: purchased Carna Biosciences 09 145
T1 sequence (Q9NWZ3 1-460): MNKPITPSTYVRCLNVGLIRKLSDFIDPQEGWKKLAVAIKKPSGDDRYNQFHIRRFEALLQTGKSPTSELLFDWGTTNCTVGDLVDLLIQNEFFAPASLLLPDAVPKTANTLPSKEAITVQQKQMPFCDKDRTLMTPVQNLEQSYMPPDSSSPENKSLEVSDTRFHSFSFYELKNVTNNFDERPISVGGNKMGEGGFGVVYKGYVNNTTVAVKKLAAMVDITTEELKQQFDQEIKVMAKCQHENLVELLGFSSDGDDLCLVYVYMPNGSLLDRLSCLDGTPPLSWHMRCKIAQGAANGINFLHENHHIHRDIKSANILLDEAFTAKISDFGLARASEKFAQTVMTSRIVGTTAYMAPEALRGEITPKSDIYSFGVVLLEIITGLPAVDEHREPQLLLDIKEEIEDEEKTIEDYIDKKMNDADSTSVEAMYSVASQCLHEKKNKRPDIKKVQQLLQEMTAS
Description: Phosphorylation IC50 determination for human IRAK-4 (ADP-Glo kinase assay). As to conditions: RIP140 substrate, Km ATP, read-out: IRAK4 IC50. The class given is biochemical. Here is the method:
3.1. Phosphorylation IC50 Determination for Human IRAK-4
The phosphorylation of the substrate RIP140 (SEQ IDi1) by IRAK4 at Km ATP was detected with the ADP-Glo Kinase Assay (Promega, Cat #V9103), a luminescent kinase assay which measures the ADP formed from a kinase reaction. (Zegzouti et al., 2009) In a second step the kinase reaction is terminated and all the remaining ATP was depleted. In a final step the ADP was converted into ATP and this newly synthesized ATP was measured by using a luciferase/luciferin reaction with a luminescent reader. The luminescent signal positively correlated with kinase activity, in particular kinase inhibition giving a decrease of the luminescent signal.
For the semi-automated assay, the positive control (100% inhibition) was prepared by diluting 10 mM staurosporine stock mixture (20 μL) in water (3.8 mL) and DMSO (180 μL), thus resulting in a […] staurosporine solution at 1% DMSO (final concentration after further dilution in the kinase reaction).
For the automated assay, no pre-dilution of the 10 mM staurosporine stock was made. 10 mM staurosporine was spotted directly in the assay plate using acoustic dispensing and complemented with DMSO to result in a similar final concentration as mentioned above.
For the semi-automated assay, the negative control (0% inhibition) was prepared by mixing water (3.8 mL) and DMSO (200 μL) resulting in a final concentration of 1% DMSO after further dilution in the kinase reaction. For the automated assay no pre-dilution of DMSO was done. 100% DMSO was spotted directly on the assay plate.
The assay buffer solution was prepared at a concentration corresponding to 5 fold the final (most diluted) assay concentration by mixing a solution of 125 mM TRIS pH 7.5+0.05% Triton X-100+2.5 mM EGTA (5.27 mL) with 1M MgCl2 (72 μL), 1M DTT (57.6 μL), and 200 mM MnCl2 (360 μL).
For example, for the semi-automated method, the enzyme-substrate mixture was prepared by mixing water (3999 μL), assay buffer solution (1380 μL), 1 mM RIP140 (138 μL—SEQ ID1), and 200 ng/mL IRAK 4 (3.45 μL Carna Biosciences, 09 145).
For semi-automated method, the ATP mixture was prepared at a concentration corresponding to 2.5 fold the final (most diluted) assay concentration of the semi-automated method and 1.5 fold the final (most diluted) assay concentration of the automated method. For example, for the semi-automated method, the ATP mixture was prepared by mixing water (4126 μL), assay buffer solution (1380 μL), and 10 mM ATP (13.80 μL).
The assay was performed either in a semi-automated or fully automated manner. The assay volume and the incubation time of the ADP detection were different accordingly the method used.
3.1.3.1. Semi-Automated Assay
The compounds were prepared as a serial dilution of 10 point dose responses with 1/5 dilution steps in 100% DMSO starting from 2 mM highest concentration, diluted 1/20 in water. 1 μL was transferred dry to the assay plates.
On each assay plate 32 wells of each control (positive & negative) were added, followed by 2 μL enzyme-substrate mixture.
The reaction was started by adding 2 μL diluted ATP (final concentration Km ATP) on the assay plates. Plates were centrifuged for a few seconds at 1000 rpm followed by an incubation at r.t. for 120 min.
The reactions were stopped and the unconsumed ATP was depleted by adding 5 μL ADP-glo Reagent (Promega, Cat #V9103) to the reaction. The plates were quickly centrifuged at 1000 rpm and incubated at r.t. for 40 min corresponding to full ATP depletion.
The ADP was converted back to ATP and luciferase and luciferin were introduced to detect ATP by adding 10 μL kinase detection reagent (Promega, Cat #V9103) to the reaction. The plates were centrifuged for a few seconds at 1000 rpm and incubated at r.t. for a further 30 min.
Luminescent read out was performed on an Envision luminescent reader (Perkin Elmer). […]
(In ADP-Glo the light output rises with the ADP produced.)

The next data set concerns Human Hepatocyte. Nature of the data set: Metabolic stability in hepatocytes (human). The class given is in vitro ADME. Particulars: 1 μM test compound, cryopreserved human hepatocytes. The method, then:
4.6. Metabolic Stability in Hepatocytes
The aim of this assay is to determine the metabolic stability of the compound in hepatocytes (cryopreserved) of different species. Low hepatocyte stability may result in the formation of unwanted metabolites, high clearance, and therefore is not desirable.
The decrease in parent was assessed by measuring the percentage remaining by LC-MS/MS analysis.
A 10 mM stock solution of test compound in DMSO was first diluted in DMSO to 3 mM, and then in modified Krebs-Henseleit buffer (Sigma, K3753) to 5 μM. This compound dilution was added to a suspension of pooled cryopreserved hepatocytes (BioreclamationIVT) at 37° C. under gentle shaking.
Final reaction conditions were: 1 μM of test compound, 0.03% DMSO, 0.5 million viable hepatocytes/mL, and 75 μL incubation volume.
Testosterone (1 μM) and 7-hydroxycoumarin (1 μM) were used, respectively as phase I and phase II metabolic reaction controls.
After 0, 10, 20, 45, 90, 120 and 180 min of incubation, the reaction was terminated with 225 μL of MeCN:MeOH (2:1) containing 100 ng/mL of diclofenac as analytical internal standard. Samples were mixed, centrifuged and the supernatant analyzed by LC-MS/MS.
The instrument responses (ratios of test compound and internal standard peak areas) were referenced to the zero time point samples (considered as 100%) in order to determine the percentage of compound remaining.
Plots of percentage compound remaining were used to determine the intrinsic clearance in the hepatocyte incubations using the following equations:
Scaled Clint [L/h/kg]=Clint[μL/min/10^6 cells]*#(10^6) cells/g liver*60*( 1/10^6) Scaled Clint unbound [L/h/kg]=Clint [L/h/kg]/Fu,inc where: fu,inc equals hepatocyte binding, derived from microsomal binding (fu,mic) by following equation: […]

As usually defined, the IC50 is the point on the concentration scale where inhibition reaches its midpoint. On to `CCOc1cn2nc(CCC(C)(C)O)cc2cc1NC(=O)c1cccn(C(F)F)c1=O` [Compound 9, 1-(difluoromethyl)-N-[6-ethoxy-2-(3-hydroxy-3-methyl-butyl)pyrazolo[1,5-a]pyridin-5-yl]-2-oxo-pyridine-3-carboxamide], for which the IC50 on human IRAK-4 fell in the range of 5 to 10 nM. For the same compound, the “Human Hepatocyte stability (Perc. remaining at 90 min)” value with Human Hepatocyte is listed as 85.6 Perc.

On to `COc1cn2nc(CC(F)C(C)(C)O)cc2cc1NC(=O)c1cccn(C2CC2)c1=O` (stereo not shown) [Compound 22, 1-cyclopropyl-N-[2-(2-fluoro-3-hydroxy-3-methyl-butyl)-6-methoxy-pyrazolo[1,5-a]pyridin-5-yl]-2-oxo-pyridine-3-carboxamide], for which the IC50 at human IRAK-4 fell in the range of 0.1 to 5 nM. For the same compound, the “Human Hepatocyte stability (Perc. remaining at 90 min)” value in the data set on Human Hepatocyte stood at 100.05 Perc.

Take `[2H]C([2H])([2H])Oc1cn2nc(CCC(C)(C)O)cc2cc1NC(=O)c1cccn(C2CC2)c1=O` [Compound 24, 1-cyclopropyl-N-[2-(3-hydroxy-3-methylbutyl)-6-(trideuteriomethoxy)pyrazolo[1,5-a]pyridin-5-yl]-2-oxopyridine-3-carboxamide]: the IC50 on human IRAK-4 fell in the range of 0.1 to 5 nM. In the data set with Human Hepatocyte, the “Human Hepatocyte stability (Perc. remaining at 90 min)” value was determined as 105 Perc.

As for `CNC(=O)c1cn2nc(C3CCOCC3)cc2cc1NC(=O)c1cccc(C(F)F)n1` [Compound 15, 5-[[6-(difluoromethyl)pyridine-2-carbonyl]amino]-N-methyl-2-tetrahydropyran-4-yl-pyrazolo[1,5-a]pyridine-6-carboxamide], the IC50 at human IRAK-4 is 0.1 to 5 nM.

In the case of `CNC(=O)c1cn2nc(CCC(C)(C)O)cc2cc1NC(=O)c1cccc(C(F)F)n1` [Compound 19, 5-[[6-(difluoromethyl)pyridine-2-carbonyl]amino]-2-(3-hydroxy-3-methyl-butyl)-N-methyl-pyrazolo[1,5-a]pyridine-6-carboxamide], the 50% inhibitory concentration (IC50) on human IRAK-4 was 0.1 to 5 nM.

In the case of `[2H]C([2H])([2H])C(O)(CCc1cc2cc(NC(=O)c3cccn(C4CC4)c3=O)c(OC)cn2n1)C([2H])([2H])[2H]` [Compound 23, 1-cyclopropyl-N-[6-methoxy-2-[4,4,4-trideuterio-3-hydroxy-3-(trideuteriomethyl)butyl]pyrazolo[1,5-a]pyridin-5-yl]-2-oxo-pyridine-3-carboxamide], the IC50 on human IRAK-4 is 0.1 to 5 nM. Also, the “Human Hepatocyte stability (Perc. remaining at 90 min)” value in the data set on Human Hepatocyte came to 101.45 Perc.

For `CC(C)(O)CCc1cc2cc(NC(=O)c3cccc(C(F)(F)F)n3)c(C(N)=O)cn2n1` [Compound 4, 2-(3-hydroxy-3-methylbutyl)-5-[[6-(trifluoromethyl)pyridine-2-carbonyl]amino]pyrazolo[1,5-a]pyridine-6-carboxamide], at human IRAK-4, the IC50 lay within 0.1 to 5 nM.

Consider `CCOc1cn2nc(CCC(C)(C)O)cc2cc1NC(=O)c1cccn(C)c1=O` [Compound 18, N-[6-ethoxy-2-(3-hydroxy-3-methyl-butyl)pyrazolo[1,5-a]pyridin-5-yl]-1-methyl-2-oxo-pyridine-3-carboxamide], for which the IC50 on human IRAK-4 was 0.1 to 5 nM. The “Human Hepatocyte stability (Perc. remaining at 90 min)” value in the data set on Human Hepatocyte came to 90.8 Perc.

As to `NC(=O)c1cn2nc(C3CCOCC3)cc2cc1NC(=O)c1cccc(C(F)F)n1` [Compound 16, 5-[[6-(difluoromethyl)pyridine-2-carbonyl]amino]-2-tetrahydropyran-4-yl-pyrazolo[1,5-a]pyridine-6-carboxamide], the IC50 on human IRAK-4 is 0.1 to 5 nM. The “Human Hepatocyte stability (Perc. remaining at 90 min)” value in the data set on Human Hepatocyte was 75.95 Perc.

Turning to `COc1cn2nc(CCC(C)(C)O)cc2cc1NC(=O)c1cccn(C2CCC2)c1=O` [Compound 21, 1-cyclobutyl-N-[2-(3-hydroxy-3-methyl-butyl)-6-methoxy-pyrazolo[1,5-a]pyridin-5-yl]-2-oxo-pyridine-3-carboxamide], at human IRAK-4, the IC50 was 0.1 to 5 nM. In addition, the “Human Hepatocyte stability (Perc. remaining at 90 min)” value with Human Hepatocyte is listed as 92.15 Perc.

Turning to `CCOc1cn2nc(CCC(C)(C)O)cc2cc1NC(=O)c1cccn(C2CC2)c1=O` [Compound 17, 1-cyclopropyl-N-[6-ethoxy-2-(3-hydroxy-3-methyl-butyl)pyrazolo[1,5-a]pyridin-5-yl]-2-oxo-pyridine-3-carboxamide], the IC50 at human IRAK-4 was in the range of 0.1 to 5 nM. For the same compound, the “Human Hepatocyte stability (Perc. remaining at 90 min)” value in the data set on Human Hepatocyte came out at 87.25 Perc.

For the compound `COc1cn2nc(CCC(C)(C)O)cc2cc1NC(=O)c1cccn(C(F)F)c1=O` [Compound 7, 1-(difluoromethyl)-N-[2-(3-hydroxy-3-methyl-butyl)-6-methoxy-pyrazolo[1,5-a]pyridin-5-yl]-2-oxo-pyridine-3-carboxamide], the IC50 at human IRAK-4 lay within 5 to 10 nM.

For the compound `COc1cn2nc(CCC(C)(C)O)cc2cc1NC(=O)c1cccn(C)c1=O` [Compound 2, N-[2-(3-hydroxy-3-methylbutyl)-6-methoxypyrazolo[1,5-a]pyridin-5-yl]-1-methyl-2-oxopyridine-3-carboxamide], on human IRAK-4, the IC50 lay in the range of 0.1 to 5 nM. Further, the “Human Hepatocyte stability (Perc. remaining at 90 min)” value with Human Hepatocyte came to 100.45 Perc.

`COc1cn2nc(CC(F)C(C)(C)O)cc2cc1NC(=O)c1cccn(C2CC2)c1=O` (single isomer, unassigned; enantiomer a) [Compound 25, 1-cyclopropyl-N-[2-(2-fluoro-3-hydroxy-3-methyl-butyl)-6-methoxy-pyrazolo[1,5-a]pyridin-5-yl]-2-oxo-pyridine-3-carboxamide Enantiomer A]: the IC50 on human IRAK-4 fell in the range of 0.1 to 5 nM. The “Human Hepatocyte stability (Perc. remaining at 90 min)” value in the data set on Human Hepatocyte was determined as 97.2 Perc.

For the compound `CNC(=O)c1cn2nc(C3CCN(C)CC3)cc2cc1NC(=O)c1cccc(C(F)(F)F)n1` [Compound 12, N-methyl-2-(1-methyl-4-piperidyl)-5-[[6-(trifluoromethyl)pyridine-2-carbonyl]amino]pyrazolo[1,5-a]pyridine-6-carboxamide], the IC50 on human IRAK-4 was in the range of 0.1 to 5 nM.
